From the OPERA property sets (Mansouri et al. 2018)

Details: not given

Row | Compound | boiling point [°C] | log10 vapour pressure (mmHg) | melting point [°C] | ready biodegradability | log10 Koc (L/kg) | log10 Koa | log10 Henry constant (atm·m³/mol)
1 | C1=CCOC1 | 66.5 | 2.2 |  |  |  |  | 
2 | COC(=O)C1(S(=O)(=O)c2ccc(Cl)cc2)CC1 |  |  | 116 |  |  |  | 
3 | CN(C)C(=O)OC1N=C(c2ccccc2)c2cc(Cl)ccc2N(C)C1=O (configuration not stated) |  |  | 174 |  |  |  | 
4 | COC(=O)N(C(=O)N1COC2(C(=O)OC)Cc3cc(Cl)ccc3C2=N1)c1ccc(OC(F)(F)F)cc1 (configuration not stated) |  |  | 140 |  |  |  | 
5 | Clc1cccc2nccc(Cl)c12 |  |  | 118 |  |  |  | 
6 | CB(C)N(C)C | 65 |  | -92 |  |  |  | 
7 | COP(=S)(OC)Oc1cc(Cl)c(Br)cc1Cl |  | -3.89 | 53.5 |  |  |  | 
8 | CC1(C)CC[C@]2(C)CC[C@]3(C)C(=CC[C@@H]4[C@@]5(C)CC[C@H](O)C(C)(C)[C@@H]5CC[C@]43C)[C@@H]2C1 |  |  | 197 |  |  |  | 
9 | CCOc1ccc(C=O)cc1OC |  |  | 64.5 |  |  |  | 
10 | Cc1cccc(C)c1N(C)C | 196 |  | -36 |  |  |  | 
11 | BrCc1ccccc1CBr |  |  | 95 |  |  |  | 
12 | COC(C)(C)CC(C)=O | 160 | 0.342 |  | not readily biodegradable |  |  | 
13 | CC(=O)CC(=O)Nc1ccccc1Cl |  |  | 105 |  |  |  | 
14 | c1cc2c3c(c1)ccc1cccc(c13)C2 | 353 |  | 114 |  |  |  | 
15 | COS(=O)(=O)[O-].C[n+]1c2ccccc2nc2ccccc21 |  |  | 157 |  |  |  | 
16 | C=CC[Si](C)(C)C | 86 |  |  |  |  |  | 
17 | CCCC=C(C)C | 95.4 | 1.73 | -130 |  |  |  | 
18 | CCN(CCO)CCn1c(Cc2ccccc2)nc2c1c(=O)n(C)c(=O)n2C |  |  | 80 |  |  |  | 
19 | CCOC(C)(C)CC | 102 | 1.7 |  |  |  |  | 
20 | N#CC(O)c1ccccc1 (configuration not stated) |  |  | -10 |  |  |  | 
21 | O=C(Cl)c1ccccc1 | 197 | -0.155 | -1 |  |  |  | 
22 | O=C(NC(Cc1ccccc1)c1ccccc1)c1cccnc1 (configuration not stated) |  |  | 159 |  |  |  | 
23 | CCN(CC)c1nc(C)cc(OP(=S)(OC)OC)n1 |  | -4.82 | 15 |  | 3 |  | 
24 | CC(=O)C(C)C | 94.3 | 1.72 | -92 | readily biodegradable |  | 3.04 | 
25 | CC(C(=O)O)c1ccc(N2CC=CC2)c(Cl)c1 (configuration not stated) |  |  | 99 |  |  |  | 

Row | Compound | boiling point [°C] | log10 vapour pressure (mmHg) | melting point [°C] | ready biodegradability | log10 Koc (L/kg) | log10 Koa | log10 Henry constant (atm·m³/mol)
26 | CC(=O)CCC=C(C)C | 174 |  | -67.1 | readily biodegradable |  |  | 
27 | O=C(Nc1ccccc1)Nc1ccnc(Cl)c1 |  | -9.46 | 167 |  |  |  | 
28 | CCOC(=O)C=Cc1ccccc1 | 271 | -2.49 | 7 |  |  |  | 
29 | CCCCCCCCn1sccc1=O |  | -4.43 |  |  |  |  | 
30 | NC(=O)CN1Cc2ccccc2OC1=O |  |  | 204 |  |  |  | 
31 | CCCSC(C)C | 132 |  |  |  |  |  | 
32 | Cc1cc(Cc2cc(C)cc(C(C)(C)C)c2O)c(O)c(C(C)(C)C)c1 |  |  | 123 | not readily biodegradable |  |  | 
33 | Clc1nc(Cl)c(Cl)c(Cl)n1 |  |  | 69 |  |  |  | 
34 | CC1(C)CCC(Cc2ccc(Cl)cc2)C1(O)Cn1cncn1 (configuration not stated) |  | -7.03 | 112 |  |  |  | 
35 | C1CCCNCCC1 |  |  | 29 |  |  |  | 
36 | Oc1ccc(C2CCCCC2)cc1Cl |  |  | 40.5 |  |  |  | 
37 | CC1(C)OC(c2ccco2)CN1C(=O)C(Cl)Cl (configuration not stated) |  | -7.31 | 97 |  |  |  | 
38 | CCO[Si](OCC)(OCC)OCC | 169 | 0.275 | -82.5 |  |  |  | 
39 | C[C@H]1CC[C@@]2(O)C(C)(C)[C@@H]3CC[C@@]2(C)[C@H]1C3 |  |  | 56 |  |  |  | 
40 | ON=C1CCCCC1=NO |  |  | 192 |  |  |  | 
41 | C=CC#CC | 59.5 |  |  |  |  |  | 
42 | Cc1cccc([N+](=O)[O-])c1N |  |  | 96 |  |  |  | 
43 | CCCCCCCCCCCCc1ccccc1 | 328 | -4.29 | 3 | readily biodegradable |  |  | 
44 | Clc1ccc(Oc2ccccc2Cl)cc1 |  | -3.15 |  |  |  |  | 
45 | Cc1ccc(P(c2ccc(C)cc2)c2ccc(C)cc2)cc1 |  |  | 149 |  |  |  | 
46 | COc1ccc2[nH]ccc2c1 |  |  | 57 |  |  |  | 
47 | O=C(O)c1cc(O)nc(O)n1 |  |  | 346 |  |  |  | 
48 | CCCCCCCCCCCC[N+](C)(C)Cc1ccccc1 |  |  |  | not readily biodegradable |  |  | 
49 | C=CCNC(=O)NCC=C |  |  | 91.5 |  |  |  | 
50 | C=CC(=O)OCCO | 191 | -1.28 |  | readily biodegradable |  |  | 

Row | Compound | boiling point [°C] | log10 vapour pressure (mmHg) | melting point [°C] | ready biodegradability | log10 Koc (L/kg) | log10 Koa | log10 Henry constant (atm·m³/mol)
51 | CCCOCC(C)O (configuration not stated) | 150 | 0.23 | -80 |  |  |  | 
52 | CCCC(=O)O[C@]1(C(=O)CCl)[C@@H](C)C[C@H]2[C@@H]3CCC4=CC(=O)C=C[C@]4(C)[C@@]3(F)C(=O)C[C@@]21C |  |  | 95 |  |  |  | 
53 | COC(=O)c1cc2ccccc2cc1O |  |  | 75.5 |  |  |  | 
54 | N#Cc1cccc(Cl)c1 |  |  | 41 |  |  |  | 
55 | CC(C)(C)c1ccc(N)cc1 | 241 |  | 17 |  |  |  | 
56 | C=CC(=O)OCCC |  | 1.16 |  |  |  |  | 
57 | FCCCCCl | 115 |  |  |  |  |  | 
58 | Cc1cc(C)nc(NC(=O)NS(=O)(=O)c2ccccc2C(=O)O)n1 |  |  |  |  | 1.8 |  | 
59 | CC(=O)N[C@@H](CCC(=O)O)C(=O)O |  |  | 199 |  |  |  | 
60 | CC(=O)NC(Cc1ccccc1)C(=O)O (stereo in doubt) |  |  | 172 |  |  |  | 
61 | O=C(O)[C@H]1CC=CCC1 | 234 |  | 17 |  |  |  | 
62 | CCCCOC(=O)C1=CC(=O)CC(C)(C)O1 | 263 | -3.52 |  |  |  |  | 
63 | C[Si](Cl)(Cl)CCl | 122 |  |  |  |  |  | 
64 | CC1(C)C(=O)Nc2ccccc21 | 300 |  | 154 |  |  |  | 
65 | CCOP(=S)(OCC)SCn1c(=O)oc2cc(Cl)ccc21 |  |  | 47.8 |  | 2.63 |  | 
66 | C=C[C@H]1C[N@@]2CC[C@H]1C[C@H]2[C@H](O)c1ccnc2ccc(OC)cc12.Cl |  |  | 159 |  |  |  | 
67 | CS(=O)(=O)CCCN=C=S |  |  | 47.5 |  |  |  | 
68 | Clc1ccncc1 | 148 |  | -43.5 |  |  |  | 
69 | COc1ccc(N=Nc2ccccc2)cc1 | 340 |  | 56 |  |  |  | 
70 | CC(=O)c1ccccn1 | 192 |  |  |  |  |  | 
71 | O=C(n1ccnc1)n1ccnc1 |  |  | 119 |  |  |  | 
72 | COc1ccc(C)c([N+](=O)[O-])c1 | 266 |  | 17 |  |  |  | 
73 | COC(=O)c1ccccn1 |  |  | 18.7 |  |  |  | 
74 | O=c1n(Cl)c(=O)n(Cl)c(=O)n1Cl |  |  |  | not readily biodegradable |  |  | 
75 | CCNc1cccc(C)c1 | 221 |  |  |  |  |  | 

Row | Compound | boiling point [°C] | log10 vapour pressure (mmHg) | melting point [°C] | ready biodegradability | log10 Koc (L/kg) | log10 Koa | log10 Henry constant (atm·m³/mol)
76 | CCC/C=C/CCC | 126 | 1.25 | -104 |  |  |  | 
77 | COc1c2ccoc2cc2oc(CO[C@@H]3O[C@H](CO)[C@@H](O)[C@H](O)[C@H]3O)cc(=O)c12 |  |  | 179 |  |  |  | 
78 | CCOC(=O)C1(S(=O)(=O)c2ccc(C)cc2)CC1 |  |  | 75.5 |  |  |  | 
79 | CCC(=O)Nc1cc(N(CCOC(C)=O)CCOC(C)=O)ccc1N=Nc1ccc([N+](=O)[O-])cc1Cl |  |  |  | not readily biodegradable |  |  | 
80 | C=C1C[C@]23C[C@@]1(O)CC[C@H]2[C@@]12C=C[C@H](O)[C@@](C)(C(=O)O1)[C@H]2[C@@H]3C(=O)O |  |  | 234 |  |  |  | 
81 | O=C(O)CCCCCCBr | 280 |  | 31 | readily biodegradable |  |  | 
82 | COC(N)=O | 177 |  | 54 |  |  |  | 
83 | CCCCCC=CC=CC(=O)O |  |  | 49.5 |  |  |  | 
84 | NC(=O)CCC/N=C(\c1ccc(Cl)cc1)c1cc(F)ccc1O |  |  | 134 |  |  |  | 
85 | FCCl | -9.1 | 3.39 | -133 |  |  |  | 
86 | BrCBr | 97 | 1.65 | -52.5 |  |  | 3.07 | -3.09
87 | COC(C)CCOC(C)=O (configuration not stated) |  |  |  | readily biodegradable |  |  | 
88 | CCOCCOCCO | 196 | -0.9 | -76 |  |  |  | 
89 | CNc1ccc(N)c2c1C(=O)c1ccccc1C2=O |  |  | 193 |  |  |  | 
90 | CC1CCCC(=O)C1 (configuration not stated) | 170 | 0.176 |  |  |  |  | 
91 | CC[N+]1(CC)CCC(OC(=O)C(O)(c2ccccc2)c2ccccc2)C1.[Br-] (configuration not stated) |  |  | 204 |  |  |  | 
92 | CCP(=O)(c1ccccc1)c1ccccc1 |  |  | 122 |  |  |  | 
93 | COc1cccc(CC(=O)O)c1 |  |  | 72 |  |  |  | 
94 | CC(C)c1cccc(O)c1 | 228 | -1.16 | 26 |  |  |  | 
95 | CCOC(=O)CBr | 168 |  |  |  |  |  | 
96 | Nc1cc(Cl)c(Cl)cc1Cl | 270 |  | 96.5 |  |  |  | 
97 | OC[C@@H]1CCCCN1 |  |  | 69 |  |  |  | 
98 | N#CCC(=O)c1ccc(N)cc1 |  |  | 159 |  |  |  | 

Same assay, conditions: fish

Row | Compound | log10 biotransformation half-life (days) | log10 BCF
99 | C=C(C)CCCCCCCCCCC | 0.73 | 
100 | COP(=S)(OC)Oc1cc(Cl)c(Br)cc1Cl | 0.97 | 3.59
101 | Cc1cc(Cc2cc(C)cc(C(C)(C)C)c2O)c(O)c(C(C)(C)C)c1 | 0.03 | 2.74
102 | CC1(C)CCC(Cc2ccc(Cl)cc2)C1(O)Cn1cncn1 (configuration not stated) | 0.23 | 
103 | O=S(=O)(O)c1ccc(O)c2ccccc12 |  | 1.11
104 | Nc1cc(Cl)c(Cl)cc1Cl | -0.01 | 2.33
